Experimental data published in patent US9115101B2 (Genentech, Inc., priority 2012, dated 2015).
Where two headings read alike, the source gives them in different places.

Biological target: T1, RORc ligand binding domain (Homo sapiens, UniProt P51449)
T1 construct: host or cells: E. coli
T1 sequence (P51449 269-508 limits assumed): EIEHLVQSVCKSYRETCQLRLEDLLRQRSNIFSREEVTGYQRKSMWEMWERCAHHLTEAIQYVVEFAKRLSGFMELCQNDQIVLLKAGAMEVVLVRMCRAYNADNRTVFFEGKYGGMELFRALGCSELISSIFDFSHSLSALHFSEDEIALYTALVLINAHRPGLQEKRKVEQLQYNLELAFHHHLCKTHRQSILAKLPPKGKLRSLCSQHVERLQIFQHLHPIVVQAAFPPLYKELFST
Experiment: In Vitro RORc Ligand Binding Assay (25-[3H]hydroxycholesterol radioligand filtration)
Conditions: read-out: RORc IC50

[1] = In Vitro RORc Ligand Binding Assay, Table 4

Row | SMILES | IC50 [1] [nM] | IC50 [nM]
1 | CC(=O)N1CCN(c2ccc(CN3CCCC(c4ccc(F)cc4)S3(=O)=O)c(F)c2)CC1 (single isomer, unassigned) [Example 12, 1-(4-{3-Fluoro-4-[6-(4-fluoro-phenyl)-1,1-dioxo-[1,2]thiazinan-2-ylmethyl]-phenyl}-piperazin-1-yl)-ethanone] | 241 | 
2 | C[C@H]1CCC(c2ccccc2)S(=O)(=O)N1Cc1ccc(N2CCC(c3nncn3C)CC2)cc1F (single isomer, unassigned) [Example 137] | 2480 | 
3 | CS(=O)(=O)N1CCC(Oc2ccc(CN3CCCC(c4ccccc4)S3(=O)=O)c(F)c2)CC1 (single isomer, unassigned) [Example 55, 2-(2-fluoro-4-((1-(methylsulfonyl)piperidin-4-yl)oxy)benzyl)-6-phenyl-1,2-thiazinane 1,1-dioxide] | 86 | 
4 | C[C@H]1CCC(c2ccccc2)S(=O)(=O)N1Cc1ccc(N2CCC(CS(C)(=O)=O)CC2)cc1F (single isomer, unassigned) [Example 104] | 54 | 
5 | CC(=O)N1CCN(c2ccc(CN3CCOCC(c4ccccc4)S3(=O)=O)c(F)c2)CC1 (centres unmarked) [Example 21, 1-{4-[4-(4,4-Dioxo-3-phenyl-[1,4,5]oxathiazepan-5-ylmethyl)-3-fluoro-phenyl]-piperazin-1-yl}-ethanone] | 209 | 
6 | CC(=O)N1CCN(c2ccc(CN3[C@@H](C)CCC(c4ccccc4F)S3(=O)=O)c(F)c2)CC1 (single isomer, unassigned) [Example 116] | 37 | 
7 | CC(=O)N1CCN(c2ccc(CN3C[C@@H](C)OCC(c4ccccc4)S3(=O)=O)c(F)c2)CC1 (single isomer, unassigned) [Example 31] | 717 | 
8 | CC(=O)N1CCN(c2ccc(CN3[C@@H](C)CCC(c4cccc(C)c4)S3(=O)=O)c(F)c2)CC1 (single isomer, unassigned) [Example 193] | 24 | 
9 | C[C@H]1CCC(c2ccccc2)S(=O)(=O)N1Cc1ccc(N2CCN(C(=O)C3CC3)CC2)cc1F (single isomer, unassigned) [Example 59] | 15 | 
10 | CC(=O)N1CCN(c2ccc(CN3C[C@@H](C)CC(c4ccccc4)S3(=O)=O)c(F)c2)CC1 (single isomer, unassigned) [Example 198] | 19 | 
11 | CC(=O)N1CCN(c2ccc(CN3[C@@H](C)CCC(c4ccccc4)S3(=O)=O)c(C)c2)CC1 (single isomer, unassigned) [Example 132] | 3930 | 
12 | C[C@H]1CCC(c2ccccc2)S(=O)(=O)N1Cc1ccc(OC2CN(S(C)(=O)=O)C2)cc1F (single isomer, unassigned) [Example 37] | 194 | 
13 | C[C@H]1CCC(c2ccccc2)S(=O)(=O)N1Cc1ccc(N2CCn3c(n[nH]c3=O)C2)cc1F (single isomer, unassigned) [Example 158] | 3930 | 
14 | C[C@H]1CCC(c2ccccc2)S(=O)(=O)N1Cc1ccc(N2CCn3c(n[nH]c3=O)C2)cc1F (single isomer, unassigned) [Example 157] | 1700 | 
15 | CO[C@@H](C)C(=O)N1CCCN(c2ccc(CN3[C@@H](C)CCC(c4ccccc4)S3(=O)=O)c(F)c2)CC1 (single isomer, unassigned) [Example 92] | 154 | 
16 | CC(=O)N1CCN(c2ccc(CN3[C@@H](C)CCC(c4ccccc4C#N)S3(=O)=O)c(F)c2)CC1 (single isomer, unassigned) [Example 208] | 32 | 
17 | C[C@H]1CCC(c2ccccc2)S(=O)(=O)N1Cc1ccc(OC2CCN(S(C)(=O)=O)CC2)nc1 (single isomer, unassigned) [Example 35] | 1100 | 
18 | CC(=O)N1CCN(c2ccc(CN3[C@@H](C)CCC(c4ccccc4Cl)S3(=O)=O)c(F)c2)CC1 (single isomer, unassigned) [Example 201] | 183 | 
19 | C[C@H]1CCC(c2ccccc2)S(=O)(=O)N1Cc1ccc(N2CCC(S(=O)(=O)N(C)C)CC2)cc1F (single isomer, unassigned) [Example 103] | 146 | 
20 | CC(=O)N1CCN(c2ccc(CN3[C@@H](C)CCC(c4ccccc4)S3(=O)=O)c(Cl)c2)CC1 (stereo partly drawn) [Example 180, 1-{4-[3-Chloro-4-((3S)-3-methyl-1,1-dioxo-6-phenyl-[1,2]thiazinan-2-ylmethyl)-phenyl]-piperazin-1-yl}-ethanone] | 1580 | 
21 | CN/C(=N\C#N)N1CCN(c2ccc(CN3[C@@H](C)CCC(c4ccccc4)S3(=O)=O)c(F)c2)CC1 (stereo partly drawn) [Example 124, 1-(4-{3-Fluoro-4-[(3S)-6-phenyl-3-methyl-1,1-dioxo-[1,2]thiazinan-2-ylmethyl]-phenyl}-piperazin-1-yl)-(Z)-N′-cyano-N-methylacetimid-amide] | 10 | 
22 | CC1CC(=O)C=C(N2CCN(c3ccc(CN4[C@@H](C)CCC(c5ccccc5)S4(=O)=O)c(F)c3)CC2)C1 (stereo partly drawn) [Example 186, 3-{4-[3-Fluoro-4-((3S)-3-methyl-1,1-dioxo-6-phenyl-[1,2]thiazinan-2-ylmethyl)-phenyl]-piperazin-1-yl}-5-methyl-cyclohex-2-enone] | 179 | 

Results, then the compound that gave them:

Row | IC50 [1] [nM] | IC50 [nM] | SMILES
23 | 1310 |  | C[C@H]1CCC(c2ccccc2)S(=O)(=O)N1Cc1ccc(C(=O)N(C)CC2CCCO2)cc1 (stereo partly drawn) [Example 283, N-Methyl-4-((3S)-methyl-1,1-dioxo-6-phenyl-[1,2]thiazinan-2-ylmethyl)-N-(tetrahydro-furan-2-ylmethyl)-benzamide]
24 | 4720 |  | C[C@H]1CCC(c2ccccc2)S(=O)(=O)N1Cc1ccc(C(=O)N2CCOC(C(N)=O)C2)cc1 (stereo partly drawn) [Example 298, 4-[4-((3S)-Methyl-1,1-dioxo-6-phenyl-[1,2]thiazinan-2-ylmethyl)-benzoyl]-morpholine-2-carboxylic acid amide]
25 | 2650 |  | C[C@H]1CCC(c2ccccc2)S(=O)(=O)N1Cc1ccc(C(=O)N2CCCCC2CO)cc1 (stereo partly drawn) [Example 280, (2-Hydroxymethyl-piperidin-1-yl)-[4-((3S)-methyl-1,1-dioxo-6-phenyl-[1,2]thiazinan-2-ylmethyl)-phenyl]-methanone]
26 | 3250 |  | C[C@H]1CCC(c2ccccc2)S(=O)(=O)N1Cc1ccc(C(=O)NC2CC(O)C2)cc1 (stereo partly drawn) [Example 268, N-(3-Hydroxy-cyclobutyl)-4-((3S)-methyl-1,1-dioxo-6-phenyl-[1,2]thiazinan-2-ylmethyl)-benzamide]
27 |  | 129 | C[C@H]1CCC(c2ccccc2)S(=O)(=O)N1Cc1ccc(N2CCN3C(=O)OCC3C2)cc1F (single isomer, unassigned) [Example 418]
28 | 106 |  | C[C@H](O)C(=O)N1CCN(c2ccc(CN3CCCCC(c4ccccc4)S3(=O)=O)cc2)CC1 (single isomer, unassigned) [Example 309, 1-{4-[4-(1,1-Dioxo-7-phenyl-[1,2]thiazepan-2-ylmethyl)-phenyl]-piperazin-1-yl}-2-hydroxy-propan-1-one]
29 | 26 |  | CC(=O)N1CCN(c2ccc(CN3[C@@H](C)CCCC(c4ccccc4)S3(=O)=O)c(F)c2)CC1 (single isomer, unassigned) [Example 322]
30 | 73 |  | C[C@H]1CCC(c2ccccc2)S(=O)(=O)N1Cc1ccc(N[C@H]2CC[C@@H](n3cnnc3)CC2)cc1F (stereo partly drawn) [Example 231, [3-Fluoro-4-((3S)-methyl-1,1-dioxo-6-phenyl-[1,2]thiazinan-2-ylmethyl)-phenyl]-(4-[1,2,4]triazol-4-yl-cyclohexyl)-amine]
31 | 219 |  | CC(=O)N1CCN(c2ccc(CN3C4CCCC4CC(c4ccccc4)S3(=O)=O)c(F)c2)CC1 (single isomer, unassigned) [Example 251, 1-(4-(4-((2,2-dioxido-3-phenylhexahydro-cyclopenta[c][1,2]thiazin-1(3H)-yl)methyl)-3-fluorophenyl)piper-azin-1-yl)ethanone]
32 | 6 |  | C[C@H]1CCC(c2ccccc2)S(=O)(=O)N1Cc1ccc(NC2CCN(S(C)(=O)=O)CC2)c(F)c1 (stereo partly drawn) [Example 236, [2-Fluoro-4-((3S)-methyl-1,1-dioxo-6-phenyl-[1,2]thiazinan-2-ylmethyl)-phenyl]-(1-methanesulfonyl-piperidin-4-yl)-amine]
33 | 57 |  | O=S1(=O)C(c2ccccc2)CC2(CC2)CN1Cc1ccc(N2CCC(n3cnnc3)CC2)cc1F (single isomer, unassigned) [Example 259, 5-[2-Fluoro-4-(4-[1,2,4]triazol-4-yl-piperidin-1-yl)-benzyl]-7-phenyl-6-thia-5-aza-spiro[2.5]octane 6,6-dioxide]
34 | 4 |  | CS(=O)(=O)N1CCC(Nc2ccc(CN3CCCCC(c4ccccc4)S3(=O)=O)cc2)CC1 (single isomer, unassigned) [Example 326, [4-(1,1-Dioxo-7-phenyl-[1,2]thiazepan-2-ylmethyl)-phenyl]-(1-methanesulfonyl-piperidin-4-yl)-amine]
35 | 22 |  | CC(=O)N1CCN(c2ccc(CN3CCC(C)CC(c4ccccc4)S3(=O)=O)c(F)c2)CC1 (single isomer, unassigned) [Example 331, 1-{4-[3-Fluoro-4-(5-methyl-1,1-dioxo-7-phenyl-[1,2]thiazepan-2-ylmethyl)-phenyl]-piperazin-1-yl}-ethanone]
36 |  | 70 | C[C@H]1CCC(c2ccccc2)S(=O)(=O)N1Cc1ccc(N2CCC(n3cnnn3)CC2)cc1 (stereo partly drawn) [Example 422, (3S)-Methyl-6-phenyl-2-[4-(4-tetrazol-1-yl-piperidin-1-yl)-benzyl]-[1,2]thiazinane 1,1-dioxide]
37 |  | 665 | C[C@H]1CCC(c2ccccc2)S(=O)(=O)N1Cc1ccc(OCCN2CCOCC2)cc1 (stereo partly drawn) [Example 438, 4-{2-[4-((3S)-Methyl-1,1-dioxo-6-phenyl-[1,2]thiazinan-2-ylmethyl)-phenoxy]-ethyl}-morpholine]
38 | 4280 |  | C[C@H]1CCC(c2ccccc2)S(=O)(=O)N1Cc1ccc(C(=O)N2CCC(C#N)CC2)cc1 (stereo partly drawn) [Example 279, 1-[4-((3S)-Methyl-1,1-dioxo-6-phenyl-[1,2]thiazinan-2-ylmethyl)-benzoyl]-piperidine-4-carbonitrile]
